Values of other authors, collected in patent US10035822B2, “Cell-reactive, long-acting, or targeted compstatin analogs and related compositions and methods” (APELLIS PHARMACEUTICALS, INC., priority 2012, dated 2018).
Non-standard residues stand in square brackets, D forms with d. Trp(6-F) = N[C@@H](Cc1c[nH]c2cc(F)ccc12)C(=O)O; Bpa = N[C@@H](Cc1ccc(C(=O)c2ccccc2)cc1)C(=O)O; 1Nal = N[C@@H](Cc1cccc2ccccc12)C(=O)O; 2Nal = N[C@@H](Cc1ccc2ccccc2c1)C(=O)O

Test system: complement activation
Conditions: relative to compstatin amidated at the C-terminus; published data (WO2004/026328, WO2007044668, Mallik 2005, Katragadda 2006); cited from earlier work

Ac-ICV(1-Nal)QDWGAHRCT-COOH (Ac-ICV[1Nal]QDWGAHRCT-OH; cysteine pairing not given here) [Ac V4(1-Nal)/H9A-OH]
Activity over compstatin: 30× more

Ac-ICV(2-IgI)QDWGAHRCT-CONH2 (Ac-ICV[2‑Igl]QDWGAHRCT-NH2; cysteine pairing not given here) [Ac-V42IgI/H9A]
Activity over compstatin: 39× more

Ac-ICV(2-IgI)QDWGAHRCT-COOH (Ac-ICV[2‑Igl]QDWGAHRCT-OH; cysteine pairing not given here) [Ac-V42IgI/H9A-OH]
Activity over compstatin: 37× more

Ac-ICV(2-Nal)QDWGAHRCT-CONH2 (Ac-ICV[2Nal]QDWGAHRCT-NH2; cysteine pairing not given here) [Ac-V4(2-Nal)/H9A]
Activity over compstatin: 99× more

Ac-ICV(2-Nal)QDWGAHRCT-COOH (Ac-ICV[2Nal]QDWGAHRCT-OH; cysteine pairing not given here) [Ac V4(2-Nal)/H9A-OH]
Activity over compstatin: 38× more

Ac-ICV(5-methyl-W)QDWGAHRCT-CONH2 [Ac-V4(5-MeW)/H9A]
Activity over compstatin: 67× more

Ac-ICV(5fW)QDWGAHRCT-CONH2 [Ac-V4(5fW)/H9A]
Activity over compstatin: 31× more

Ac-ICV(Bpa)QDWGAHRCT-CONH2 (Ac-ICV[Bpa]QDWGAHRCT-NH2; cysteine pairing not given here) [Ac-V4(Bpa)/H9A]
Activity over compstatin: 86× more

Ac-ICV(Bpa)QDWGAHRCT-COOH (Ac-ICV[Bpa]QDWGAHRCT-OH; cysteine pairing not given here) [Ac-V4(Bpa)/H9A-OH]
Activity over compstatin: 49× more

Ac-ICVDhtQDWGAHRCT-COOH [Ac-V4Dht/H9A-OH]
Activity over compstatin: 5× more

Ac-ICVVQDWGHHRCT-CONH2 [Ac-compstatin]
Activity over compstatin: 3× more

Ac-ICVWQD(5fW)GAHRCT-CONH2 [Ac-V4W/W7(5fW)/H9A]
Activity over compstatin: 121× more

Ac-ICVWQDWGAHRCT-CONH2 [Ac-V4W/H9A]
Activity over compstatin: 45× more

Ac-ICVWQDWGAHRCdT-COOH [Ac-V4W/H9A/T13dT-OH]
Activity over compstatin: 55× more

Ac-ICVYQDWGAHRCT-CONH2 [Ac-V4Y/H9A]
Activity over compstatin: 14× more

H-GICV(6fW)QD(6fW)GAHRCTN-COOH (H-GICV[Trp(6-F)]QD[Trp(6-F)]GAHRCTN-OH; cysteine pairing not given here) [+G/V4(6fW)/W7(6fW)H9A + N-OH]
Activity over compstatin: 126× more
